Test results as given in patent publication US8883799B2, “Tricyclic PI3K inhibitor compounds and methods of use” (Genentech, Inc., priority 2010, dated 2014).
pEC50, pIC50: −log10 of the molar value.

Assays:
[1] = system: MDA-MB-361.1; test: In vitro cell proliferation assay (CellTiter-Glo), MDA-MB-361.1; format: cell-based; conditions: Cell line: MDA-MB-361.1; Tissue type: breast; Mutation Status: PI3K; read-out: EC50 (μmole)
Description: (§1) Efficacy of Formula I compounds was measured by a cell proliferation assay employing the following protocol (Promega Corp. Technical Bulletin TB288; Mendoza et al (2002) Cancer Res. 62:5485-5488):
(§2) 1. An aliquot of 100 μl of cell culture containing about 10^4 cells (PC3, Detroit562, or MDAMB361.1) in medium was deposited in each well of a 384-well, opaque-walled plate.
(§3) 2. Control wells were prepared containing medium and without cells.
(§4) 3. The compound was added to the experimental wells and incubated for 3-5 days.
(§5) 4. The plates were equilibrated to room temperature for approximately 30 minutes.
(§6) 5. A volume of CellTiter-Glo® Reagent equal to the volume of cell culture medium present in each well was added.
(§7) 6. The contents were mixed for 2 minutes on an orbital shaker to induce cell lysis.
(§8) 7. The plate was incubated at room temperature for 10 minutes to stabilize the luminescence signal.
(§9) 8. Luminescence was recorded and reported in graphs as RLU=relative luminescence units.
(§10) Alternatively, cells were seeded at optimal density in a 96 well plate and incubated for 4 days in the presence of test compound. Alamar Blue™ was subsequently added to the assay medium, and cells were incubated for 6 hr before reading at 544 nm excitation, 590 nm emission. EC50 values were calculated using a sigmoidal dose response curve fit. The term EC50 refers to the half maximal effective concentration and is the concentration at which a drug induces a response halfway between the baseline and maximum after some specified exposure time. It is commonly used as a measure of drug potency.
(§11) The anti-proliferative effects of Formula I exemplary compounds were measured by the CellTiter-Glo® Assay against various tumor cell lines, including the following: […]

[2] = system: PC3; test: In vitro cell proliferation assay (CellTiter-Glo), PC3; format: cell-based; conditions: Homo sapiens, PC-3; Cell line: PC3; Tissue type: prostate; Mutation Status: PTEN; read-out: EC50 (μmole)
Description: as §1, §2, §3, §4, §5, §6, §7, §8, §9, §10, §11

[3] = target: T1, p110 alpha PI3K (Homo sapiens, UniProt P42336); test: p110α (alpha) PI3K binding assay (fluorescence polarization; alternatively radiometric); conditions: read-out: IC50, Ki (μmole) PI3K, p110 alpha binding assay
T1 construct: purchased Upstate Cell Signaling Solutions, Charlottesville, Va
T1 sequence (P42336 whole entry): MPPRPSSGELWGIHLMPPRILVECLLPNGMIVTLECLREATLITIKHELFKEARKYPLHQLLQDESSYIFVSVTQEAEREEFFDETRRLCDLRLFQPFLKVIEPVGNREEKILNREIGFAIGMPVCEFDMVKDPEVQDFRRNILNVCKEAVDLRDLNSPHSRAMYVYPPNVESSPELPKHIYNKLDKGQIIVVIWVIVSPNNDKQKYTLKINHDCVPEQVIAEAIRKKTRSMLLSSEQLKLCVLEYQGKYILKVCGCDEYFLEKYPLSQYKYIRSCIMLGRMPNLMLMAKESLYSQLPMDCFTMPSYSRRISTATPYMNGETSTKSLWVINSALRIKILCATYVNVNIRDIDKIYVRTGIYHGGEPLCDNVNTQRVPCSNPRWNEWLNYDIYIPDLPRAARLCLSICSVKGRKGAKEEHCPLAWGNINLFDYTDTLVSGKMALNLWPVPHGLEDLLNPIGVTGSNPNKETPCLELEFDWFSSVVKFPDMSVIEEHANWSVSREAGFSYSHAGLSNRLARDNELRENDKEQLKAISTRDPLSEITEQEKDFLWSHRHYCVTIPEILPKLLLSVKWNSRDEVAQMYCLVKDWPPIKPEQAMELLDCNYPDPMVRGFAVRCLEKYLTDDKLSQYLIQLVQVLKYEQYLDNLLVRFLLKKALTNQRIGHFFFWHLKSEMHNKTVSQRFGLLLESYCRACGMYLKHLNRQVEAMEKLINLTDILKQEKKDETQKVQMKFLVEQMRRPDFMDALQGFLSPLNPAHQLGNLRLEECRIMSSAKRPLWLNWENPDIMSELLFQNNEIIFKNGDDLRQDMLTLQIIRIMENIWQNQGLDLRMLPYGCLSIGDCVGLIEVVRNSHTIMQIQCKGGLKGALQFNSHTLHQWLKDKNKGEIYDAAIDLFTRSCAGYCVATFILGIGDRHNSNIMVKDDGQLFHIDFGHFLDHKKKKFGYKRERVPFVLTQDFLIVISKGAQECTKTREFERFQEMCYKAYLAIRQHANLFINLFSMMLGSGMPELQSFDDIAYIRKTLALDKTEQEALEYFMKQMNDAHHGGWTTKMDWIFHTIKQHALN
T1 sequence (P27986 whole entry partner): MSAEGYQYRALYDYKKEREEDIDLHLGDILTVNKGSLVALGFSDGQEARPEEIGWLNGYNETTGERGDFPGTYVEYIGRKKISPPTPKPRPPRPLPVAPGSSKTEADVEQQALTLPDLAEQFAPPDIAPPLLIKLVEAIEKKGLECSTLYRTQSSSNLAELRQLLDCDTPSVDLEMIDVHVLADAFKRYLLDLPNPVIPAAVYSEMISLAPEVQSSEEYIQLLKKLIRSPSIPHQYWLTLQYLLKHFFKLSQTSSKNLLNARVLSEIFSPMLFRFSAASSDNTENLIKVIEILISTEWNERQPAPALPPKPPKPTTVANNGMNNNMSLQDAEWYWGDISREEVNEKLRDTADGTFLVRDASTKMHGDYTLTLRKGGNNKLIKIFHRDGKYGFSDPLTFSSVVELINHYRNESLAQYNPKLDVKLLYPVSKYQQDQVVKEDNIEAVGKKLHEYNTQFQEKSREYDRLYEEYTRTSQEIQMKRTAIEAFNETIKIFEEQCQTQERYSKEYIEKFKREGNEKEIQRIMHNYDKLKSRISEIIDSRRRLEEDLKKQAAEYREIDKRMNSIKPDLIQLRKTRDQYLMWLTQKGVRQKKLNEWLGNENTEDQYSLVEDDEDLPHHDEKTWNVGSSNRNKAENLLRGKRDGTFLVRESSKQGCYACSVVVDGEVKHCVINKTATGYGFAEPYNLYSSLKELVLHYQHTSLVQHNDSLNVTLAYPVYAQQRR
Description: Binding Assays: Initial polarization experiments were performed on an Analyst HT® 96-384 (Molecular Devices Corp, Sunnyvale, Calif.). […] After an incubation time of 30 minutes at room temperature, the reactions were stopped by the addition of GRP-1 and PIP3-TAMRA probe (Echelon-Inc., Salt Lake City, Utah) 100 nM and 5 nM final concentrations respectively. Read with standard cut-off filters for the rhodamine fluorophore (λex=530 nm; λem=590 nm) in 384-well black low volume Proxiplates® (PerkinElmer, Wellesley, Mass.) Fluorescence polarization values were plotted as a function of the protein concentration, and the EC50 values were obtained by fitting the data to a 4-parameter equation using KaleidaGraph® software (Synergy software, Reading, Pa.). This experiment also establishes the appropriate protein concentration to use in subsequent competition experiments with inhibitors.
After an incubation time of 30 minutes at room temperature, the reactions were stopped by the addition of GRP-1 and PIP3-TAMRA probe (Echelon-Inc., Salt Lake City, Utah) 100 nM and 5 nM final concentrations respectively. Read with standard cut-off filters for the rhodamine fluorophore (λex=530 nm; λem=590 nm) in 384-well black low volume PROXIPLATES® (PerkinElmer, Wellesley, Mass.) Fluorescence polarization values were plotted as a function of the antagonist concentration, and the IC50 values were obtained by fitting the data to a 4-parameter equation in Assay Explorer® software (MDL, San Ramon, Calif.).
The Formula I compound was serially diluted in 100% DMSO. The kinase reaction was incubated for 1 hr at room temperature, and the reaction was terminated by the addition of PBS. IC50 values were subsequently determined using sigmoidal dose-response curve fit (variable slope).

SMILES | pEC50 [1] | pEC50 [2] | pIC50 [3]
CN(C)c1cnc(-c2nc(N3CCOCC3)c3nc4n(c3n2)CCOC4(C)C)cn1 [Compound 163, 5-(6,6-dimethyl-4-morpholino-8,9-dihydro-6H-[1,4]oxazino[3,4-e]purin-2-yl)-N,N-dimethylpyrazin-2-amine] | < 5.00 | < 5.00 | < 6.16
CC1(C)OCCn2c1nc1c(N3C[C@@H]4C[C@H]3CO4)nc(-c3cnc(N)nc3)nc12 [Compound 174, 5-(4-((1S,4S)-2-oxa-5-azabicyclo[2.2.1]heptan-5-yl)-6,6-dimethyl-8,9-dihydro-6H-[1,4]oxazino[3,4-e]purin-2-yl)pyrimidin-2-amine] | 5.47 | 5.44 | 
FC(F)(F)C1OCCn2c1nc1c(N3CCOCC3)nc(-c3cccc4[nH]ncc34)nc12 (stereo not shown) [Compound 169, 2-(1H-indazol-4-yl)-4-morpholino-6-(trifluoromethyl)-8,9-dihydro-6H-[1,4]oxazino[3,4-e]purine] | 5.36 | 5.16 | 
Nc1ncc(-c2nc(N3CCOCC3)c3c(n2)N2CCC[C@H]2CO3)cn1 [Compound 122, 5-((S)-6-Morpholin-4-yl-2,3,3a,4-tetrahydro-1H-5-oxa-7,9,9b-triaza-cyclopenta[a]naphthalen-8-yl)-pyrimidin-2-ylamine] | 5.49 | 5.70 | 
C[C@@H]1CN(c2nc(-c3cnc(N)nc3)nc3c2nc2n3CCOC2(C)C)C[C@H](C)O1 [Compound 171, 5-(4-((2S,6R)-2,6-dimethylmorpholino)-6,6-dimethyl-8,9-dihydro-6H-[1,4]oxazino[3,4-e]purin-2-yl)pyrimidin-2-amine] | 5.51 | 5.42 | 
CC1(C)CN(c2nc(-c3cnc(N)nc3)nc3c2nc2n3CCOC2(C)C)CCO1 [Compound 172, 5-(4-(2,2-dimethylmorpholino)-6,6-dimethyl-8,9-dihydro-6H-[1,4]oxazino[3,4-e]purin-2-yl)pyrimidin-2-amine] | 5.82 | 5.85 | 
CC1(C)OCCn2c1nc1c(N3CCOCC3)nc(-c3ccc(N)cn3)nc12 [Compound 138, 6-(6,6-dimethyl-4-morpholino-8,9-dihydro-6H-[1,4]oxazino[3,4-e]purin-2-yl)pyridine-3-amine] | < 5.00 | < 5.00 | < 6.16
CC(C)Cn1cc(-c2nc(N3CCOCC3)c3nc4n(c3n2)CCOC4(C)C)cn1 [Compound 148, 2-(1-isobutyl-1H-pyrazol-4-yl)-6,6-dimethyl-4-morpholino-8,9-dihydro-6H-[1,4]oxazino[3,4-e]purine] | < 5.00 | < 5.00 | < 6.16

The next molecules have a higher pEC50 [1] than those just listed; values first:

pEC50 [1] | pEC50 [2] | pIC50 [3] | SMILES
7.03 | 6.73 |  | CC1(C)OCCn2c1cc1c(N3CCOCC3)nc(-c3cnc(N)nc3)nc12 [Compound 177, 5-(8,8-Dimethyl-1-morpholin-4-yl-5,6-dihydro-8H-7-oxa-2,4,4b-triaza-fluoren-3-yl)-pyrimidin-2-ylamine]
6.04 | 5.96 |  | Oc1cccc(-c2nc(N3CCOCC3)c3nc4n(c3n2)CCOC4C(F)(F)F)c1 (stereo not shown) [Compound 170, 3-(4-morpholino-6-(trifluoromethyl)-8,9-dihydro-6H-[1,4]oxazino[3,4-e]purin-2-yl)phenol]
7.09 | 5.70 |  | Cc1nc(N)ncc1-c1nc(N2CCOCC2)c2nc3n(c2n1)CCOC3(C)C [Compound 102, 5-(6,6-dimethyl-4-morpholino-8,9-dihydro-6h-[1,4]oxazino[3,4-e]purin-2-yl)-4-methylpyrimidin-2-amine]
6.02 | 5.74 |  | CC1(C)CCn2c(nc3c(N4CCOCC4)nc(-c4cnc(N)nc4)nc32)O1 [Compound 115, 5-(7,7-dimethyl-4-morpholino-8,9-dihydro-7h-[1,3]oxazino[2,3-e]purin-2-yl)pyrimidin-2-amine]
6.63 | 6.67 |  | CC1(C)OCCc2c1sc1c(N3CCOCC3)nc(-c3cnc(N)nc3)nc21 [Compound 168, 5-(8,8-Dimethyl-1-morpholin-4-yl-5,8-dihydro-6H-7-oxa-9-thia-2,4-diaza-fluoren-3-yl)-pyrimidin-2-ylamine]
6.37 | 6.16 |  | Nc1ncc(-c2nc(N3CCOCC3)c3nc4n(c3n2)CCO[C@H]4C(F)(F)F)cn1 [Compound 139, (R)-5-(4-morpholino-6-(trifluoromethyl)-8,9-dihydro-6H-[1,4]oxazino[3,4-e]purin-2-yl)pyrimidin-2-amine]
6.05 | 5.72 |  | CC1c2nc3c(N4CCOCC4)nc(-c4cnc(N)nc4)nc3n2CCN1C (stereo not shown) [Compound 176, 5-(6,7-dimethyl-4-morpholino-6,7,8,9-tetrahydropyrazino[2,1-e]purin-2-yl)pyrimidin-2-amine]
5.92 | 5.89 |  | CC(C)NC(=O)Nc1ccc(-c2nc(N3CCOCC3)c3nc4n(c3n2)CCOC4(C)C)cc1 [Compound 165, 1-(4-(6,6-dimethyl-4-morpholino-8,9-dihydro-6H-[1,4]oxazino[3,4-e]purin-2-yl)phenyl)-3-isopropylurea]
6.50 | 6.68 |  | CCNC(=O)Nc1ccc(-c2nc(N3CCOCC3)c3c(n2)C2(C)CCOC2N3C)cc1 (stereo not shown) [Compound 101, 1-[4-(3a,8-dimethyl-7-morpholin-4-yl-3,3a,8,8a-tetrahydro-2h-1-oxa-4,6,8-triaza-cyclopenta[a]inden-5-yl)-phenyl]-3-ethyl-urea]
